Reference: ChEMBL document CHEMBL1201862, “PubChem BioAssay data set” (2004)
Calls of active or inactive are those of the source.

How the values were obtained:
[1] = biological target: T1, Heat shock factor protein 1 (Mus musculus, UniProt P38532); assay: decrease of HSF1-responsive luciferase luminescence – cell-based, NIH3T3, dose retest, confirmation (AID 2382); type: functional;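 further: NIH3T3 fibroblasts with HSF1-driven luciferase reporter stressed by proteasome inhibitor MG132; luminescence from HSF1-driven luciferase expression after 8 hours of MG132 stress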
T1 sequence (P38532 whole entry): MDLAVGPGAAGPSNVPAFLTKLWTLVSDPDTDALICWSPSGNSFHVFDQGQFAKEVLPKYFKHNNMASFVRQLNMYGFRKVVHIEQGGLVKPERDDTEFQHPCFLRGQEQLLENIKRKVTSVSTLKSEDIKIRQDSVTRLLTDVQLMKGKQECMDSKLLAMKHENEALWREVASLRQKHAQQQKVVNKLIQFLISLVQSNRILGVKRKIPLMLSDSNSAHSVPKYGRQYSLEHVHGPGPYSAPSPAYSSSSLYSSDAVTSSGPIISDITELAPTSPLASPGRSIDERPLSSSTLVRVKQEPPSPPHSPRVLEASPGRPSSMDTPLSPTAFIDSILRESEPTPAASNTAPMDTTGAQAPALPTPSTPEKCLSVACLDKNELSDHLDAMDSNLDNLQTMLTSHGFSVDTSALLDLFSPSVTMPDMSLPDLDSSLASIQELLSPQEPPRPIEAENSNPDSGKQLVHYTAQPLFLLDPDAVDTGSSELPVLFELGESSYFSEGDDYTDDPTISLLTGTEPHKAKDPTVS

[2] = biological target: T2, Short transient receptor potential channel 4 (Mus musculus, UniProt Q9QUQ5); assay: block of DAMGO-driven TRPC4 calcium entry – cell-based, HEK293 TRPC4/mu-opioid, Fluo-4 calcium, dose response (AID 434942); type: functional;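 further: potency of inhibitors blocking the TRPC4 calcium response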
T2 sequence (Q9QUQ5 whole entry): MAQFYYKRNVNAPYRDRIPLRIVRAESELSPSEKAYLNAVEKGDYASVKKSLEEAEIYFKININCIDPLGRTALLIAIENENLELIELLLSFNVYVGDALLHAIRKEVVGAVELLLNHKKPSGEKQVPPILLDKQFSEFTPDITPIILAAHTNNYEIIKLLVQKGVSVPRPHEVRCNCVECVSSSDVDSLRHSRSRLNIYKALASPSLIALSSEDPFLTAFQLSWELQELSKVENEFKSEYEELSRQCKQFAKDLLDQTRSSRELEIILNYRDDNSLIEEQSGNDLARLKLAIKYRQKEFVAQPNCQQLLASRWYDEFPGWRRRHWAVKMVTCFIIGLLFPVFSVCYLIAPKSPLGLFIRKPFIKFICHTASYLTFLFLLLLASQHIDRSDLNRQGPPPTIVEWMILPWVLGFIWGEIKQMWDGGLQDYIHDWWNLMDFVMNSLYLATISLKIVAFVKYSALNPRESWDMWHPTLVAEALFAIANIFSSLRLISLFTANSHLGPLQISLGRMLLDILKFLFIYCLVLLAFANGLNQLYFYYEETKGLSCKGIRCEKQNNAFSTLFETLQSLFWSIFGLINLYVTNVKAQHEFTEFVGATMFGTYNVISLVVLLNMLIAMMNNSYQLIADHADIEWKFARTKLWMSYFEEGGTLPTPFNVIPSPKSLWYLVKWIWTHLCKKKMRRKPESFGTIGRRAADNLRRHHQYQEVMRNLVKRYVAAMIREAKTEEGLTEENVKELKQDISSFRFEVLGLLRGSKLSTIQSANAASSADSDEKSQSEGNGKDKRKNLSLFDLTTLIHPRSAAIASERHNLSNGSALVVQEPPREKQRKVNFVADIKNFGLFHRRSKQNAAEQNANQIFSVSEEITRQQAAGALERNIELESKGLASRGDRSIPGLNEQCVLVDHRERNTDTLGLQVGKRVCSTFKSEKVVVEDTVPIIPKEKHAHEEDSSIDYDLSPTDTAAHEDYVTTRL

[3] = biological target: T2, Short transient receptor potential channel 4; assay: calcium entry via TRPC4 opening agents – cell-based, HEK293 TRPC4/mu-opioid, Fluo-4 calcium, dose response (AID 434937); type: functional
[4] = biological target: G-protein coupled receptor 55 (Homo sapiens, UniProt Q9Y2T6); assay: inhibition of LPI-stimulated GPR55 beta-arrestin translocation – imaging, U2OS, beta-arrestin-GFP, LPI agonist, primary screen (AID 2013); type: functional;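 further: antagonist potency measured as reduced agonist-driven arrestin aggregation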
Sequence of G-protein coupled receptor 55 (Q9Y2T6 whole entry): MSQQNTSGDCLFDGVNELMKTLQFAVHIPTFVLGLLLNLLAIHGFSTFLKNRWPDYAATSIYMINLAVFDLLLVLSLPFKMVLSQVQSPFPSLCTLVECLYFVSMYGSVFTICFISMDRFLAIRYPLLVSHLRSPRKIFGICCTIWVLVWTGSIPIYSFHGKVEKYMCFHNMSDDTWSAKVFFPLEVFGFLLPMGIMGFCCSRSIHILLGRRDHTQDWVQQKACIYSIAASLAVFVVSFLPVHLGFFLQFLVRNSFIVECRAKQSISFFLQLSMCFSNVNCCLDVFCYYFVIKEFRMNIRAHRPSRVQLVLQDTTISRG

[5] = A Cell Based Secondary Assay To Explore Cytotoxicity of Compounds that Sensitize Mycobacterium Tuberculosis to Beta-Lactam Antibiotics.; type: functional
Bcl-2-related protein A1 = biological target: T3, Bcl-2-related protein A1 (Mus musculus, UniProt Q07440); type: functional;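 further: confirmatory dose–response counterscreen on Bfl-1, used to check hits from a UBC13 polyubiquitin inhibitor campaign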
T3 sequence (Q07440 whole entry): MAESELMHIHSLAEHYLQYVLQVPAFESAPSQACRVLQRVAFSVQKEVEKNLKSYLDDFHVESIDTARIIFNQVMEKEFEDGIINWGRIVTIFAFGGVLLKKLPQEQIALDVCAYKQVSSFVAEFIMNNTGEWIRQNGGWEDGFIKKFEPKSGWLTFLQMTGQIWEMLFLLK

[6] = biological target: T4, Ubiquitin-conjugating enzyme E2 N (Homo sapiens, UniProt P61088); type: functional
T4 sequence (P61088 whole entry): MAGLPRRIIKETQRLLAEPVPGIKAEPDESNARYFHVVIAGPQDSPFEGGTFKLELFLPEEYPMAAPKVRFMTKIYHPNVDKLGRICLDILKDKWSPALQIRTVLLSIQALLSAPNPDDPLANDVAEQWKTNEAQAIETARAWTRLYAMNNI

[7] = biological target: T4, Ubiquitin-conjugating enzyme E2 N; type: functional; remark: listed apart in the source
INS1 = assay: INS-1E survival protection against cytokine death – cell-based, luminescence, retest, dose response (AID 449756); type: functional; settings: Rattus norvegicus;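 further: cell death triggered by IL-1 beta plus TNF-alpha plus IFN-gamma mixture; protective hits raise ATP signal compared with cytokine alone wells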
[8] = viability of PTEN-deleted HCT116 cells – cell-based, HCT116 PTEN knockout, dose response (AID 1047); type: functional;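 further: HCT116 colon tumor cells with PTEN knocked out; cells exposed to compound for 60 hours before readout; potency for loss of cell viability measured by luminescence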
[9] = viability of HCT116 lacking mutant beta-catenin – cell-based, human colon tumor, dose response (AID 1045); type: functional;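 further: HCT116 colon tumor cells with beta catenin knocked out; cells exposed to compound for 60 hours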
[10] = biological target: T5, Mannose-6-phosphate isomerase (Homo sapiens, UniProt P34949); assay: phosphomannose isomerase inhibition – biochemical, fluorescence intensity, confirmation (AID 1535)
T5 sequence (P34949 whole entry): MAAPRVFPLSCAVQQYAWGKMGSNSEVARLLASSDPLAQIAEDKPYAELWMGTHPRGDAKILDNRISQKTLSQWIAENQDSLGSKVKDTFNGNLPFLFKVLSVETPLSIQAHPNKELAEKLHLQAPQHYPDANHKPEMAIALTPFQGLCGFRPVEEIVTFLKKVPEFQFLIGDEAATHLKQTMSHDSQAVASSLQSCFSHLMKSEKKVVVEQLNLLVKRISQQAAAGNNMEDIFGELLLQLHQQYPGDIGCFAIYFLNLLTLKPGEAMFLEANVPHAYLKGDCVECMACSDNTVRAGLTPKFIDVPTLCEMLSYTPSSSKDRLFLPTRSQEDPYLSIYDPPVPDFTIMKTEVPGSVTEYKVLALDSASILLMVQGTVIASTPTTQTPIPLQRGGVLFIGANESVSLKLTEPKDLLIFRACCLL

Phosphomannomutase 2 = biological target: T6, Phosphomannomutase 2 (Homo sapiens, UniProt O15305); assay: Counter screen SAR assay for PMM2 inhibitors via a fluorescence intensity assay. [Related pubchem assays (depositor defined):AID1545, AID1574]
T6 sequence (O15305 whole entry): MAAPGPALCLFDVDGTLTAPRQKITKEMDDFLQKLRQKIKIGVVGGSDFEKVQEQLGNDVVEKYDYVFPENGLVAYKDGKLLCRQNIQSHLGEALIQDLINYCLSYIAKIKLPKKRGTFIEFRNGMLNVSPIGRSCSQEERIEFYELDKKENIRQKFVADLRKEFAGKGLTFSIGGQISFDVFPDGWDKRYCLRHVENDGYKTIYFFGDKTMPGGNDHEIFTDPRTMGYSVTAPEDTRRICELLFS

[11] = biological target: DNA dC->dU-editing enzyme APOBEC-3A (Homo sapiens, UniProt P31941); assay: A3A deaminase inhibition for selectivity – biochemical, dose response (AID 504722); type: functional
Sequence of DNA dC->dU-editing enzyme APOBEC-3A (P31941 whole entry): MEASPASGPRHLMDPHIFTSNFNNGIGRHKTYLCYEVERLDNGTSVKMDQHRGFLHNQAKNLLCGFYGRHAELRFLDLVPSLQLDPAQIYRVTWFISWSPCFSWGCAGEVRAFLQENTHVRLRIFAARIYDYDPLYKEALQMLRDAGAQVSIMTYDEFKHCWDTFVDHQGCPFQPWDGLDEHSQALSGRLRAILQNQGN

[12] = biological target: DNA dC->dU-editing enzyme APOBEC-3G (Homo sapiens, UniProt Q9HC16); assay: Dose Response confirmation of small molecule APOBEC3G DNA Deaminase Inhibitors via a fluorescence-based single-stranded DNA deaminase assay. [Related pubchem assays (depositor defined):AID493012, AID493028]; type: functional
Sequence of DNA dC->dU-editing enzyme APOBEC-3G (Q9HC16 whole entry): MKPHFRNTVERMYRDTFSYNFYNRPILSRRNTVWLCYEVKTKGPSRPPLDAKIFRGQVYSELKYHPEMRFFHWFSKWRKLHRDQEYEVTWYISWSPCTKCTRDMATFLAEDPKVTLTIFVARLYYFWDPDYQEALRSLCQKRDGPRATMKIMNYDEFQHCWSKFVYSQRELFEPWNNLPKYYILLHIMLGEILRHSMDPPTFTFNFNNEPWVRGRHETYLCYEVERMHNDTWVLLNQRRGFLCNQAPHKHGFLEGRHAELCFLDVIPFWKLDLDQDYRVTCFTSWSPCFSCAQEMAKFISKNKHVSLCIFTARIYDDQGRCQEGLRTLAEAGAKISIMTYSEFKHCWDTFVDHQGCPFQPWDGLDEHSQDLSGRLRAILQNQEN

Large T antigen = Large T antigen (Simian virus 40, UniProt P03070); type: functional, Betapolyomavirus macacae;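 further: Confirmatory-stage PubChem screen for compounds that inhibit SV40 T antigen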
Sequence of Large T antigen (P03070 whole entry): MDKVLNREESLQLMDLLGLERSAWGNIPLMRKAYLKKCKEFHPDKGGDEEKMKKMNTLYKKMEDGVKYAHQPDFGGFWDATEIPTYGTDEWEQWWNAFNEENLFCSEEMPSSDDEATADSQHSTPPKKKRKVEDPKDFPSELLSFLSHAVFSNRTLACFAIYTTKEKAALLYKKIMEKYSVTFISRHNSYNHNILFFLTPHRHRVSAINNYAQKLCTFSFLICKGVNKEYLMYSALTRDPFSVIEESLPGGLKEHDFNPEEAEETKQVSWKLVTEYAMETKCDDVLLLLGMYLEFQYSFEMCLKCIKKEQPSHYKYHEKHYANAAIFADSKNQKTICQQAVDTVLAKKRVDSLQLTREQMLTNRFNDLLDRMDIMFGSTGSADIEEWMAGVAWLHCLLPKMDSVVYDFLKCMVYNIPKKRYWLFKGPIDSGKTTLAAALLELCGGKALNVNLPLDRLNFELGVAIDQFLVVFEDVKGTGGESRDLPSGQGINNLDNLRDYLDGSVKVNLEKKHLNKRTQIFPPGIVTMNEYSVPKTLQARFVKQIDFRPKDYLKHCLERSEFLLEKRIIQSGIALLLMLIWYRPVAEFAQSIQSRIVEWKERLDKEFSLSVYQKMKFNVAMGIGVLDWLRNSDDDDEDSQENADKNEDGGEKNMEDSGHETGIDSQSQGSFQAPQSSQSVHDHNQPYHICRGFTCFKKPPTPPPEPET

Coagulation factor XII = biological target: T7, Coagulation factor XII (Homo sapiens, UniProt P00748); type: functional;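 further: activated factor XIIa alpha cleaving a fluorogenic AMC peptide substrate; inhibitor potency from loss of enzyme activity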
T7 sequence (P00748 whole entry): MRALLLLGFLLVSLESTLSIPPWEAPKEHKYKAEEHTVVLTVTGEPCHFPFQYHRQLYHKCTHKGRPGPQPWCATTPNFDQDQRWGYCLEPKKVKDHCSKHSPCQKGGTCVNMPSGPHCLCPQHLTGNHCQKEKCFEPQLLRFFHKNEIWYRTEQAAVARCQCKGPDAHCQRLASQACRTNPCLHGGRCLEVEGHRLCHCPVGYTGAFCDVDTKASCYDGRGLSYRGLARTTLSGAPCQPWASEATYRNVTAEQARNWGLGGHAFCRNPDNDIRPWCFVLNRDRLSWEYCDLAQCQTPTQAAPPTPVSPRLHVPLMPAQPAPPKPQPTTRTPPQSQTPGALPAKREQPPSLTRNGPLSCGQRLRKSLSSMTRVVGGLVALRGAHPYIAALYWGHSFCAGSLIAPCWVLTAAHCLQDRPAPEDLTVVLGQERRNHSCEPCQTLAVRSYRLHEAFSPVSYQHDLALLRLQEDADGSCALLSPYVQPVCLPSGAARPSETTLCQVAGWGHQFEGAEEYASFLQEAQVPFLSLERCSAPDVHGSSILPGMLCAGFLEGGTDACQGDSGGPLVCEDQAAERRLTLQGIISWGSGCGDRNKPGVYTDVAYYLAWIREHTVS

[13] = biological target: T8, Rac GTPase-activating protein 1 (Homo sapiens, UniProt Q9H0H5); assay: blockers of MgcRacGAP-driven Rac1 GTP hydrolysis – biochemical, ADP Hunter fluorescence, primary and confirmatory, confirmation (AID 624330); type: functional
T8 sequence (Q9H0H5 whole entry): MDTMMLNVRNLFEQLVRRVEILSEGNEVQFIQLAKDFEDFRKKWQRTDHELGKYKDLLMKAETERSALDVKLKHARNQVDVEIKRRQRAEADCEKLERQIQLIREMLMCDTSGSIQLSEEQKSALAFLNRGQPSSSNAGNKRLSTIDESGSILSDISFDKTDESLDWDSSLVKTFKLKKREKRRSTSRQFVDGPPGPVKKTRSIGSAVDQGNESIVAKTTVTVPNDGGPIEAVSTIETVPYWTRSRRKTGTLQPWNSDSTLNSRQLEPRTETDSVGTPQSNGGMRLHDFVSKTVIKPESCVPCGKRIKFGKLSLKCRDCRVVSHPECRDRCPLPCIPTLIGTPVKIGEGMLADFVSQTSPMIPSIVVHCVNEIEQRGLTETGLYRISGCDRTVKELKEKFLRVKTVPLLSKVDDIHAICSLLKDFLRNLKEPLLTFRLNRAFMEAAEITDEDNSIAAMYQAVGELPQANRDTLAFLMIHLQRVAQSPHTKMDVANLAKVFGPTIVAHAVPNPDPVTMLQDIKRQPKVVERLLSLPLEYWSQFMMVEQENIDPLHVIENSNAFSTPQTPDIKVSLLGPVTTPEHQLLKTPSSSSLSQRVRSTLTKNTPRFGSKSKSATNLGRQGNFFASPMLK

SMILES: COc1ccc(/C=C/C(=O)Nc2ccccc2C(=O)NCC(c2ccc(OC)cc2)N(C)C)cc1 (stereo unspecified)
- EC50 [1]: > 195 µM (not active)
- EC50 [2]: 0.188 µM (active)
- EC50 [3]: 0.421 µM (active)

SMILES: CCOC(=O)c1c(NC(=O)C2=C(C)N=C(S)NC2c2ccc(CC)cc2)sc(C)c1C (stereo unspecified)
- IC50 [4]: 1.64 µM (active)

SMILES: COc1ccc(NC(=O)CN2CCN(C3c4ccccc4-c4ccccc43)CC2)c(OC)c1
- CC50 [5]: > 40 µM (active)
- IC50 [4]: 2.19 µM (active)

SMILES: CCN1CCN(Cc2ccc(NC(=O)c3cc(NC(=O)c4cncc(-c5ccc(C#N)cc5)c4)cc(OC)c3)cc2C(F)(F)F)CC1
- EC50 [1]: > 195 µM (not active)
- IC50 (Bcl-2-related protein A1): 8.76 µM (active)
- IC50 [6]: 10.9 µM (active)
- IC50 [7]: 6.69 µM (active)
- AC50 (INS1): 8.2 µM (active)

SMILES: COc1ccc(OCC(O)Cn2c(=N)n(Cc3ccccc3)c3ccccc32)cc1 (stereo unspecified)
- IC50 [4]: 3.61 µM (active)
- EC50 [8]: 7.31 µM (active)
- EC50 [9]: 7.38 µM (active)

SMILES: Cc1c(Cl)cccc1/N=c1\ssnc1Cl
- IC50 [10]: > 100 µM (inactive)
- IC50 (Phosphomannomutase 2): > 100 µM (inactive)

SMILES: O=[N+]([O-])c1c(Br)cccc1/N=c1\ssnc1Cl
- IC50 [10]: 7.37 µM (active)
- IC50 (Phosphomannomutase 2): 4.8 µM (active)

SMILES: Cc1c(CN2CCC(n3nccc3NC(=O)C3CC3)CC2)[nH]c2ccccc12
- EC50 [3]: 0.596 µM (active)

SMILES: Clc1nss/c1=N\c1cnc2ccccc2c1
- IC50 [10]: 67.2 µM (active)
- IC50 (Phosphomannomutase 2): > 100 µM (inactive)

SMILES: COc1cc2c(cc1OC)C(C)N(C(=O)C(NC(=O)c1ccccc1)C(C)C)CC2 (stereo unspecified)
- EC50 [3]: 5.96 µM (active)

SMILES: COc1ccc(/C=N/n2c(S)nnc2-c2cc(C)[nH]n2)cc1
- IC50 [11]: > 100 µM (inactive)
- IC50 [12]: 3.83 µM (active)

SMILES: CC(/C=N/n1c(S)nnc1-c1ccncc1)=C\c1ccco1
- IC50 (Large T antigen): 45 µM (active)
- IC50 [11]: > 100 µM (inactive)
- IC50 [12]: 2.71 µM (active)

SMILES: Sc1nnc(-c2ccncc2)n1/N=C/C=C/c1ccco1
- IC50 [11]: 26.7 µM (active)
- IC50 [12]: 2.54 µM (active)
- IC50 (Coagulation factor XII): 45.3 µM (active)
- IC50 [13]: 81.9 µM (active)
